Biological target: human NaV 1.8 (Homo sapiens, UniProt Q9Y5Y9)
Assay: E-VIPR assay detecting and measuring NaV inhibition properties
Format: cell-based
Details: HEK cells expressing truncated human NaV 1.8; no human serum; read-out: IC50 in the E-VIPR Assay
Outline: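 HEK cells expressing truncated, fully active human NaV1.8, with KIR2.1 BacMam co-transduction, were loaded with CC2-DMPE/DiSBAC6(3) voltage-sensing dyes for 20 min at room temperature. Compounds were tested in 11-point 3-fold dilutions (300 nM top final), optionally with 25% human serum, under electrical stimulation with FRET read-out.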

human NaV 1.8, sequence (Q9Y5Y9 126-399 limits assumed): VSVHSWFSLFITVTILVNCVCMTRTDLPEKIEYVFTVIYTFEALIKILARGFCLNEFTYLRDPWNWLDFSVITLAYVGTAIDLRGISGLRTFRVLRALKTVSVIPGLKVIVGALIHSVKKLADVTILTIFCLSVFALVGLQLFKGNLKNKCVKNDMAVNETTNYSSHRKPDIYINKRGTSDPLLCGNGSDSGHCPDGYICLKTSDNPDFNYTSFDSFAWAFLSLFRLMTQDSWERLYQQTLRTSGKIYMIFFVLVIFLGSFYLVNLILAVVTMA
human NaV 1.8, sequence (Q9Y5Y9 660-890 limits assumed): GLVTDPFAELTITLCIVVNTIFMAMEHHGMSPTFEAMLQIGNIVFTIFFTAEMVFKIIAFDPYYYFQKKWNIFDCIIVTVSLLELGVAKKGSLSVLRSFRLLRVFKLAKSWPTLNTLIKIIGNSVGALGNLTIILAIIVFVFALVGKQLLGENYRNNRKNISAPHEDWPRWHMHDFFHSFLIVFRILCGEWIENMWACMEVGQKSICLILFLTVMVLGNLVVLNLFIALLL
human NaV 1.8, sequence (Q9Y5Y9 1148-1722 limits assumed): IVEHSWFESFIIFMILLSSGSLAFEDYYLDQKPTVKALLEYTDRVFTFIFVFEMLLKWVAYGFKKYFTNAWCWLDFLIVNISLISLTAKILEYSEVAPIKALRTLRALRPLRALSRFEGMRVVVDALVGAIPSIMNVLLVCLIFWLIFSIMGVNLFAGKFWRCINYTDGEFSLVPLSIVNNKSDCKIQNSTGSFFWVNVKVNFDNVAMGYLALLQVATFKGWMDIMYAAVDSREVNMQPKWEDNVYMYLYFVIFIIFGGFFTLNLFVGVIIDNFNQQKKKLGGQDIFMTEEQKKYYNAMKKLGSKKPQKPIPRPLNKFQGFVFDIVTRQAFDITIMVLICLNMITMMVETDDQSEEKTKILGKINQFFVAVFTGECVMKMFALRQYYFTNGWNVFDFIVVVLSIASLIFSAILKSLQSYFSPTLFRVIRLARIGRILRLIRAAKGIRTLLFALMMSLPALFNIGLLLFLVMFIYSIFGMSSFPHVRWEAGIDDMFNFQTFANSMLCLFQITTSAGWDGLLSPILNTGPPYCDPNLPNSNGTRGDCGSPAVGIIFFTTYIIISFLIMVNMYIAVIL

Row | SMILES | IC50
1 | CC1C(c2ccc(F)c(F)c2OCCO)C(C(=O)Nc2ncn(C3CC(F)C3)n2)OC1(C)C(F)(F)F [Compound 554, (2R,3S,4S,5R)-3-(3,4-difluoro-2-(2-hydroxyethoxy)phenyl)-N-(1-((15,3S)-3-fluorocyclobutyl)-1H-1,2,4-triazol-3-yl)-4,5-dimethyl-5-(trifluoromethyl)tetrahydrofuran-2-carboxamide] | ≥ 1 µM
2 | C[C@H]1[C@@H](c2ccc(F)c(F)c2OCCO)[C@H](C(=O)Nc2ccon2)O[C@@]1(C)C(F)(F)F [Compound 556, (2R,3S,4S,5R)-3-(3,4-difluoro-2-(2-hydroxyethoxy)phenyl)-N-(isoxazol-3-yl)-4,5-dimethyl-5-(trifluoromethyl)tetrahydrofuran-2-carboxamide] | 0.1 to 1 µM
3 | Cc1oncc1NC(=O)[C@@H]1O[C@@](C)(C(F)(F)F)[C@@H](C)[C@H]1c1ccc(F)c(F)c1OCCO [Compound 559, (2R,3S,4S,5R)-3-(3,4-difluoro-2-(2-hydroxyethoxy)phenyl)-4,5-dimethyl-N-(5-methylisoxazol-4-yl)-5-(trifluoromethyl)tetrahydrofuran-2-carboxamide] | 0.01 to 0.1 µM
4 | Cc1cc(NC(=O)[C@@H]2O[C@@](C)(C(F)(F)F)[C@@H](C)[C@H]2c2ccc(F)c(F)c2OCCO)ccn1 [Compound 560, (2R,3S,4S,5R)-3-(3,4-difluoro-2-(2-hydroxyethoxy)phenyl)-4,5-dimethyl-N-(2-methylpyridin-4-yl)-5-(trifluoromethyl)tetrahydrofuran-2-carboxamide] | 0.01 to 0.1 µM
5 | C[C@H]1[C@@H](c2ccc(F)c(F)c2OCCO)[C@H](C(=O)Nc2ncn(C3CCOC3)n2)O[C@@]1(C)C(F)(F)F (stereo partly drawn) [Compound 561, (2R,3S,4S,5R)-3-(3,4-difluoro-2-(2-hydroxyethoxy)phenyl)-4,5-dimethyl-N-(1-(tetrahydrofuran-3-yl)-1H-1,2,4-triazol-3-yl)-5-(trifluoromethyl)tetrahydrofuran-2-carboxamide] | ≥ 1 µM
6 | COCc1cc(C)nc(NC(=O)[C@@H]2O[C@@](C)(C(F)(F)F)[C@@H](C)[C@H]2c2ccc(F)c(F)c2OCCO)n1 [Compound 562, (2R,3S,4S,5R)-3-(3,4-difluoro-2-(2-hydroxyethoxy)phenyl)-N-(4-(methoxymethyl)-6-methylpyrimidin-2-yl)-4,5-dimethyl-5-(trifluoromethyl)tetrahydrofuran-2-carboxamide] | ≥ 1 µM
7 | C[C@H]1[C@@H](c2ccc(F)c(F)c2OCCO)[C@H](C(=O)Nc2ncnc3c2cnn3C(C)(C)C)O[C@@]1(C)C(F)(F)F [Compound 563, (2R,3S,4S,5R)-N-(1-(tert-butyl)-1H-pyrazolo[3,4-d]pyrimidin-4-yl)-3-(3,4-difluoro-2-(2-hydroxyethoxy)phenyl)-4,5-dimethyl-5-(trifluoromethyl)tetrahydrofuran-2-carboxamide] | ≥ 1 µM
8 | C[C@H]1[C@@H](c2ccc(F)c(F)c2OCCO)[C@H](C(=O)Nc2cnc3nnn(C)c3c2)O[C@@]1(C)C(F)(F)F [Compound 565, (2R,3S,4S,5R)-3-(3,4-difluoro-2-(2-hydroxyethoxy)phenyl)-4,5-dimethyl-N-(1-methyl-1H-[1,2,3]triazolo[4,5-b]pyridin-6-yl)-5-(trifluoromethyl)tetrahydrofuran-2-carboxamide] | 0.01 to 0.1 µM
9 | C[C@H]1[C@@H](c2ccc(F)c(F)c2OCCO)[C@H](C(=O)Nc2cnn(C)c(=O)c2)O[C@@]1(C)C(F)(F)F [Compound 568, (2R,3S,4S,5R)-3-(3,4-difluoro-2-(2-hydroxyethoxy)phenyl)-4,5-dimethyl-N-(1-methyl-6-oxo-1,6-dihydropyridazin-4-yl)-5-(trifluoromethyl)tetrahydrofuran-2-carboxamide] | 0.01 to 0.1 µM
10 | Cc1ncc(NC(=O)[C@@H]2O[C@@](C)(C(F)(F)F)[C@@H](C)[C@H]2c2ccc(F)c(F)c2OCCO)cn1 [Compound 569, (2R,3S,4S,5R)-3-(3,4-difluoro-2-(2-hydroxyethoxy)phenyl)-4,5-dimethyl-N-(2-methylpyrimidin-5-yl)-5-(trifluoromethyl)tetrahydrofuran-2-carboxamide] | 0.1 to 1 µM
11 | COc1cc(NC(=O)[C@@H]2O[C@@](C)(C(F)(F)F)[C@@H](C)[C@H]2c2ccc(F)c(F)c2OCCO)c(F)cn1 [Compound 570, (2R,3S,4S,5R)-3-(3,4-difluoro-2-(2-hydroxyethoxy)phenyl)-N-(5-fluoro-2-methoxypyridin-4-yl)-4,5-dimethyl-5-(trifluoromethyl)tetrahydrofuran-2-carboxamide] | 0.01 to 0.1 µM
12 | C[C@H]1[C@@H](c2ccc(F)c(F)c2OCCO)[C@H](C(=O)Nc2ccc(C(F)F)nc2)O[C@@]1(C)C(F)(F)F [Compound 571, (2R,3S,4S,5R)-3-(3,4-difluoro-2-(2-hydroxyethoxy)phenyl)-N-(6-(difluoromethyl)pyridin-3-yl)-4,5-dimethyl-5-(trifluoromethyl)tetrahydrofuran-2-carboxamide] | 0.01 to 0.1 µM
13 | C[C@H]1[C@@H](c2ccc(F)c(F)c2OCCO)[C@H](C(=O)Nc2cnsc2)O[C@@]1(C)C(F)(F)F [Compound 572, (2R,3S,4S,5R)-3-(3,4-difluoro-2-(2-hydroxyethoxy)phenyl)-N-(isothiazol-4-yl)-4,5-dimethyl-5-(trifluoromethyl)tetrahydrofuran-2-carboxamide] | 0.01 to 0.1 µM
14 | C[C@H]1[C@@H](c2ccc(F)c(F)c2OCCO)[C@H](C(=O)Nc2cnnn2C)O[C@@]1(C)C(F)(F)F [Compound 573, (2R,3S,4S,5R)-3-(3,4-difluoro-2-(2-hydroxyethoxy)phenyl)-4,5-dimethyl-N-(1-methyl-1H-1,2,3-triazol-5-yl)-5-(trifluoromethyl)tetrahydrofuran-2-carboxamide] | 0.1 to 1 µM
15 | Cc1nnn2ccc(NC(=O)[C@@H]3O[C@@](C)(C(F)(F)F)[C@@H](C)[C@H]3c3ccc(F)c(F)c3OCCO)cc12 [Compound 574, (2R,3S,4S,5R)-3-(3,4-difluoro-2-(2-hydroxyethoxy)phenyl)-4,5-dimethyl-N-(3-methyl-[1,2,3]triazolo[1,5-a]pyridin-5-yl)-5-(trifluoromethyl)tetrahydrofuran-2-carboxamide] | 0.01 to 0.1 µM
16 | C[C@H]1[C@@H](c2ccc(F)c(F)c2OCC2COC2)[C@H](C(=O)Nc2cccnc2)O[C@@]1(C)C(F)(F)F [Compound 578, (2R,3S,4S,5R)-3-(3,4-difluoro-2-(oxetan-3-ylmethoxy)phenyl)-4,5-dimethyl-N-(pyridin-3-yl)-5-(trifluoromethyl)tetrahydrofuran-2-carboxamide] | 0.01 to 0.1 µM

The next lines start with the values.

Row | IC50 | SMILES
17 | 0.01 to 0.1 µM | C[C@H]1[C@@H](c2ccc(F)c(F)c2OCCO)[C@H](C(=O)Nc2cncs2)O[C@@]1(C)C(F)(F)F [Compound 555, (2R,3S,4S,5R)-3-(3,4-difluoro-2-(2-hydroxyethoxy)phenyl)-4,5-dimethyl-N-(thiazol-5-yl)-5-(trifluoromethyl)tetrahydrofuran-2-carboxamide]
18 | 0.01 to 0.1 µM | Cc1nn(C)cc1NC(=O)[C@@H]1O[C@@](C)(C(F)(F)F)[C@@H](C)[C@H]1c1ccc(F)c(F)c1OCCO [Compound 557, (2R,3S,4S,5R)-3-(3,4-difluoro-2-(2-hydroxyethoxy)phenyl)-N-(1,3-dimethyl-1H-pyrazol-4-yl)-4,5-dimethyl-5-(trifluoromethyl)tetrahydrofuran-2-carboxamide]
19 | < 0.01 µM | Cc1nocc1NC(=O)[C@@H]1O[C@@](C)(C(F)(F)F)[C@@H](C)[C@H]1c1ccc(F)c(F)c1OCCO [Compound 558, (2R,3S,4S,5R)-3-(3,4-difluoro-2-(2-hydroxyethoxy)phenyl)-4,5-dimethyl-N-(3-methylisoxazol-4-yl)-5-(trifluoromethyl)tetrahydrofuran-2-carboxamide]
20 | < 0.01 µM | COCc1cc(NC(=O)[C@@H]2O[C@@](C)(C(F)(F)F)[C@@H](C)[C@H]2c2ccc(F)c(F)c2OCCO)ccn1 [Compound 564, (2R,3S,4S,5R)-3-(3,4-difluoro-2-(2-hydroxyethoxy)phenyl)-N-(2-(methoxymethyl)pyridin-4-yl)-4,5-dimethyl-5-(trifluoromethyl)tetrahydrofuran-2-carboxamide]
21 | < 0.01 µM | C[C@H]1[C@@H](c2ccc(F)c(F)c2OCCO)[C@H](C(=O)Nc2ccnc(C(F)F)c2)O[C@@]1(C)C(F)(F)F [Compound 566, (2R,3S,4S,5R)-3-(3,4-difluoro-2-(2-hydroxyethoxy)phenyl)-N-(2-(difluoromethyl)pyridin-4-yl)-4,5-dimethyl-5-(trifluoromethyl)tetrahydrofuran-2-carboxamide]
22 | < 0.01 µM | COCCOc1cc(NC(=O)[C@@H]2O[C@@](C)(C(F)(F)F)[C@@H](C)[C@H]2c2ccc(F)c(F)c2OCCO)ccn1 [Compound 567, (2R,3S,4S,5R)-3-(3,4-difluoro-2-(2-hydroxyethoxy)phenyl)-N-(2-(2-methoxyethoxy)pyridin-4-yl)-4,5-dimethyl-5-(trifluoromethyl)tetrahydrofuran-2-carboxamide]
23 | < 0.01 µM | C[C@H]1[C@@H](c2ccc(F)c(F)c2OCCO)[C@H](C(=O)Nc2cccnc2)O[C@@]1(C)C(F)(F)F [Compound 575, (2R,3S,4S,5R)-3-[3,4-difluoro-2-(2-hydroxyethoxy)phenyl]-4,5-dimethyl-N-(3-pyridyl)-5-(trifluoromethyl)tetrahydrofuran-2-carboxamide]
24 | < 0.01 µM | C[C@H]1[C@@H](c2ccc(F)c(F)c2OCCO)[C@H](C(=O)Nc2ccnnc2)O[C@@]1(C)C(F)(F)F [Compound 576, (2R,3S,4S,5R)-3-[3,4-difluoro-2-(2-hydroxyethoxy)phenyl]-4,5-dimethyl-N-pyridazin-4-yl-5-(trifluoromethyl)tetrahydrofuran-2-carboxamide]
25 | < 0.01 µM | COCCOc1c([C@H]2[C@H](C(=O)Nc3ccc4nncn4c3)O[C@@](C)(C(F)(F)F)[C@H]2C)ccc(F)c1F [Compound 577, (2R,3S,4S,5R)-3-[3,4-difluoro-2-(2-methoxyethoxy)phenyl]-4,5-dimethyl-N-([1,2,4]triazolo[4,3-a]pyridin-6-yl)-5-(trifluoromethyl)tetrahydrofuran-2-carboxamide]

Source: patent US20240368135A1 (VERTEX PHARMACEUTICALS INCORPORATED, priority 2021, published 2024)
